# Assay results as given in US20250092058A1 (priority 2018, published 2025).
# Tested on: HeLa
# Experiment: not given
# Format: cell-based, human
# Conditions: not given
row,SMILES,IC50 [nM]
1,CCOc1ccc(-c2c3c(nc4cc5c(cc24)OCO5)-c2cc4c(c(=O)n2C3)COC(=O)[C@]4(O)CC)cc1F [Compound 7j],42.2 ± 3.6
2,CC[C@@]1(O)C(=O)OCc2c1cc1n(c2=O)Cc2c-1nc1cc3c(cc1c2-c1cccc(C(F)(F)F)c1)OCO3 [Compound 7k],20.2 ± 3
3,CC[C@@]1(O)C(=O)OCc2c1cc1n(c2=O)Cc2c-1nc1cc3c(cc1c2-c1ccc(OC(F)(F)F)cc1)OCO3 [Compound 7m],398 ± 2.6
4,CC[C@@]1(O)C(=O)OCc2c1cc1n(c2=O)Cc2c-1nc1cc3c(cc1c2-c1ccc(F)c(F)c1)OCO3 [Compound 7n],39.7 ± 2.3
5,CC[C@@]1(O)C(=O)OCc2c1cc1n(c2=O)Cc2c-1nc1cc3c(cc1c2-c1cccc(OC(F)(F)F)c1)OCO3 [Compound 71],12.8 ± 7.4

# Tested on: HepG2
# Experiment: not given
# Format: cell-based, human
# Conditions: not given
row,SMILES,IC50 [nM]
1,CCOc1ccc(-c2c3c(nc4cc5c(cc24)OCO5)-c2cc4c(c(=O)n2C3)COC(=O)[C@]4(O)CC)cc1F [Compound 7j],206 ± 38.2
2,CC[C@@]1(O)C(=O)OCc2c1cc1n(c2=O)Cc2c-1nc1cc3c(cc1c2-c1cccc(C(F)(F)F)c1)OCO3 [Compound 7k],35 ± 6.6
3,CC[C@@]1(O)C(=O)OCc2c1cc1n(c2=O)Cc2c-1nc1cc3c(cc1c2-c1ccc(OC(F)(F)F)cc1)OCO3 [Compound 7m],229 ± 5.8
4,CC[C@@]1(O)C(=O)OCc2c1cc1n(c2=O)Cc2c-1nc1cc3c(cc1c2-c1ccc(F)c(F)c1)OCO3 [Compound 7n],49.9 ± 3.5
5,CC[C@@]1(O)C(=O)OCc2c1cc1n(c2=O)Cc2c-1nc1cc3c(cc1c2-c1cccc(OC(F)(F)F)c1)OCO3 [Compound 71],16.8 ± 2.3

# Tested on: HT-3 retinoblastoma xenograft tumors
# Experiment: not given
# Conditions: oral, multiple doses, weekly×4
# Protocol: Human HT-3 retinoblastoma xenograft tumors were initially established by subcutaneously injection of 2-5×10^6 HT-3 cells in a volume of 100-200 μL medium. Mouse models of HT-3 xenografts were set up by subcutaneously inoculating 30-40 mg tumor tissue on the flank of SCID mice. Treatment with individual compounds was initiated 7-14 days after the transplanted tumors reached 100-200 mm^3 (designated day 0). […] The individual compounds were formulated in an organic solvent-free with HPPCD as drug carriers in 2% HPMC (hydroxypropyl methylcellulose) and 1% PG (propylene glycol) in saline (a thick aqueous suspension) for oral administration. The vehicle is the same thick aqueous suspension without drug. A. FL7s-3-treated xenograft tumor curve profile (left panel) and body weight profile (right panel) over the experimental period. B. FL7s-4-treated xenograft tumor curve profile (left panel) and body weight profile (right panel) over the experimental period. C. FL7s-7-treated xenograft tumor curve profile (left panel) and body weight profile (right panel) over the experimental period.
# (§1) Human xenograft tumors used. In this invention disclose, human SW620 (colorectal), HT29 (colorectal) and HT-3 (retinoblastoma) cancer cell line-established xenograft tumors were used. Human tumor cell line-derived xenograft tumors are initially established by subcutaneously injecting 2-5×10^6 cultured cancer cells in a volume of 100-150 p L medium into the flank area of severe combined immunodeficiency (SCID) mice. The derived tumors are then passed a couple of generations in mice by transplanting 30-50 mg non-necrotic tumor mass via a trocar for experiments or maintenance. […] PDX tumors were originally established on severe Combined Immunodeficiency (SCID) mice from pancreatic and colorectal cancer patient tumor tissues obtained from metastatic sites of the disease in the clinic.
# To these three novel compounds, we performed in vivo animal model studies to evaluate their antitumor activity and toxicity using the HT-3 retinoblastoma xenograft tumor models. In this experiment, we still took advantage of the newly developed formulation for oral administration of compounds.
row,SMILES,overall antitumor activity versus toxicity ranking
1,"CC[C@@]1(O)C(=O)OCc2c1cc1n(c2=O)Cc2c-1nc1cc3c(cc1c2CCc1ccccc1Cl)OCO3 [FL7-15, 20 (S)-7-(2-chloro-phenethyl)-10,11-methylenedioxy-camptothecin]",not as good as FL7-5 and FL7-14

# Tested on: Wer 127
# Experiment: MTT assay Wer 127
# Format: cell-based
# Conditions: Table 7
# Protocol: (§2) MTT assays. […] Each experiment was performed at least in triplicate.
row,SMILES,IC50/EC50 [nM]
1,"CC[C@@]1(O)C(=O)OCc2c1cc1n(c2=O)Cc2c-1nc1cc3c(cc1c2C=Cc1ccccc1)OCO3 [FL7-5, 20 (S)-7-cinnamenyl-10,11-methylenedioxy-camptothecin]",5.13
2,"CC[C@@]1(O)C(=O)OCc2c1cc1n(c2=O)Cc2c-1nc1cc3c(cc1c2CCc1ccccc1Cl)OCO3 [FL7-15, 20 (S)-7-(2-chloro-phenethyl)-10,11-methylenedioxy-camptothecin]",>500

# Tested on: CRC PDX27454 tumors
# Experiment: not given
# Conditions: mouse, in vivo
# Protocol: Colorectal cancer (CRC) patient-derived xenograft (PDX) models were used to evaluate their in vivo antitumor activity. […] Treatments were administered weekly for four weeks on days 0, 7, 14 and 21 and tumor volumes and individual body weights were monitored.
# as §1
# Specifically, PDX tumors were originally established on severe Combined Immunodeficiency (SCID) mice from pancreatic and colorectal cancer patient tumor tissues obtained from metastatic sites of the disease in the clinic. […] The vehicle is the same think aqueous suspension without drug. Experimental SCID mice were subcutaneously implanted with 30-40 mg individual PDX tumors (isolated from maintenance mice) at the flank area for PDX27454 of SCID mice. Treatment with vehicle or a drug of 7Q-series (2) was initiated 7-14 days after the transplanted tumors reached 100-200 mm^3 (designated day 0). The animal model of PDX tumors was orally treated weekly for 4 times (one cycle/course, as shown with black arrows) or only one time drug administration.
row,SMILES,antitumor efficacy
1,CC[C@@]1(O)C(=O)OCc2c1cc1n(c2=O)Cc2c-1nc1cc3c(cc1c2-c1cccc(OC(F)(F)F)c1)OCO3 [Compound 71],no more effective than FL118 in vivo

# Tested on: A549
# Experiment: not given
# Format: cell-based, human
# Conditions: not given
row,SMILES,IC50 [nM]
1,CCOc1ccc(-c2c3c(nc4cc5c(cc24)OCO5)-c2cc4c(c(=O)n2C3)COC(=O)[C@]4(O)CC)cc1F [Compound 7j],352 ± 10.3
2,CC[C@@]1(O)C(=O)OCc2c1cc1n(c2=O)Cc2c-1nc1cc3c(cc1c2-c1cccc(C(F)(F)F)c1)OCO3 [Compound 7k],82.9 ± 5.6
3,CC[C@@]1(O)C(=O)OCc2c1cc1n(c2=O)Cc2c-1nc1cc3c(cc1c2-c1ccc(OC(F)(F)F)cc1)OCO3 [Compound 7m],87.3 ± 14.4
4,CC[C@@]1(O)C(=O)OCc2c1cc1n(c2=O)Cc2c-1nc1cc3c(cc1c2-c1ccc(F)c(F)c1)OCO3 [Compound 7n],9
5,CC[C@@]1(O)C(=O)OCc2c1cc1n(c2=O)Cc2c-1nc1cc3c(cc1c2-c1cccc(OC(F)(F)F)c1)OCO3 [Compound 71],26.4 ± 7.5

# Tested on: HCT116
# Experiment: not given
# Format: cell-based, human
# Conditions: not given
row,SMILES,IC50 [nM]
1,CCOc1ccc(-c2c3c(nc4cc5c(cc24)OCO5)-c2cc4c(c(=O)n2C3)COC(=O)[C@]4(O)CC)cc1F [Compound 7j],399 ± 19.8
2,CC[C@@]1(O)C(=O)OCc2c1cc1n(c2=O)Cc2c-1nc1cc3c(cc1c2-c1cccc(C(F)(F)F)c1)OCO3 [Compound 7k],73.6 ± 7.1
3,CC[C@@]1(O)C(=O)OCc2c1cc1n(c2=O)Cc2c-1nc1cc3c(cc1c2-c1ccc(OC(F)(F)F)cc1)OCO3 [Compound 7m],196 ± 19.1
4,CC[C@@]1(O)C(=O)OCc2c1cc1n(c2=O)Cc2c-1nc1cc3c(cc1c2-c1ccc(F)c(F)c1)OCO3 [Compound 7n],48.8 ± 3.2
5,CC[C@@]1(O)C(=O)OCc2c1cc1n(c2=O)Cc2c-1nc1cc3c(cc1c2-c1cccc(OC(F)(F)F)c1)OCO3 [Compound 71],14.6 ± 6.7

# Tested on: HT-3
# Experiment: MTT assay HT-3
# Format: cell-based, human
# Conditions: Table 7; HT-3
# Protocol: MTT assays. […] Viable cells (2500 cells per well) were plated in each well in 96-well plates. After an overnight incubation, cells were treated with and without relevant drugs alone and in combination, respectively, at various concentrations and incubated for 72 hours. MTT, a colorimetric substrate, was added to a final concentration of 0.4 mg/ml to each well. Cells in 96-well plates were further incubated in a 5% CO2 incubator at 37° C. for 4 hours, and then the medium was aspirated. The MTT metabolic product formazan was solubilized by adding 200 ul of DMSO to each well. Absorbance in the relevant wells was measured at 570 nm using an Ultra Microplate Reader (Bio-Tek Instruments). Each experiment was performed at least in triplicate. IC50/EC50 values were calculated from a series of drug dose ranges for each analyzed compound, using GraphPad Prism 6 (GraphPad Software, Inc., La Jolla, CA).
# The inhibition of cell growth and viability in various cancer cell types were tested using MTT assay for references.
row,SMILES,IC50/EC50 [nM]
1,"CC[C@@]1(O)C(=O)OCc2c1cc1n(c2=O)Cc2c-1nc1cc3c(cc1c2C=Cc1ccccc1)OCO3 [FL7-5, 20 (S)-7-cinnamenyl-10,11-methylenedioxy-camptothecin]",5.89
2,"CC[C@@]1(O)C(=O)OCc2c1cc1n(c2=O)Cc2c-1nc1cc3c(cc1c2CCc1ccccc1Cl)OCO3 [FL7-15, 20 (S)-7-(2-chloro-phenethyl)-10,11-methylenedioxy-camptothecin]",45.81

# Tested on: Y79
# Experiment: MTT assay Y79
# Format: cell-based
# Conditions: Table 7
# Protocol: as §2
row,SMILES,IC50/EC50 [nM]
1,"CC[C@@]1(O)C(=O)OCc2c1cc1n(c2=O)Cc2c-1nc1cc3c(cc1c2C=Cc1ccccc1)OCO3 [FL7-5, 20 (S)-7-cinnamenyl-10,11-methylenedioxy-camptothecin]",2.51
2,"CC[C@@]1(O)C(=O)OCc2c1cc1n(c2=O)Cc2c-1nc1cc3c(cc1c2CCc1ccccc1Cl)OCO3 [FL7-15, 20 (S)-7-(2-chloro-phenethyl)-10,11-methylenedioxy-camptothecin]",12.59
